Experimental data published in patent US20230265116A1, “DEGRADATION OF (EGFR) BY CONJUGATION OF EGFR INHIBITORS WITH E3 LIGASE LIGAND AND METHODS OF USE” (BEIGENE, LTD., priority 2020, published 2023).

Tests used:
EGFR (HCC827 cells) = biological target: T1, EGFR (HCC827 cells) (Homo sapiens, UniProt P00533, DEL746-750); experiment: EGFR degradation HTRF assay, HCC827 cells; assay type: cell-based; settings: HCC827, 16h treatment; for Dmax: maximum percentage of degradation
T1 construct: endogenous in cells; host or cells: HCC827
In short: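 EGFR remaining after a 16 h, 37 °C exposure (8 doses, 5-fold steps from 10 uM final, 0.2% DMSO) was quantified by HTRF antibodies in cell lysate. Percent inhibition relative to DMSO control was fitted by four-parameter logistic to give DC50; Dmax denotes maximal degradation.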

[1] = biological target: T2, EGFR L858R/T790M (H1975-clone #36, homozygous) (Homo sapiens, UniProt P00533, L858R/T790M); experiment: EGFR degradation HTRF assay, H1975-clone #36 cells; assay type: cell-based; settings: H1975 #36, 16h treatment; for Dmax: NCI-H1975, maximum percentage of degradation
T2 construct: designed to specifically target WT EGFR but preserve the L858R/T790M copy; host or cells: H1975-clone #36
Method: H1975-clone #36(L858R/T790M). H1975 cell heterozygously (from ATCC) contains alleles of WT and L858R/T790M EGFR. H1975-clone #36(L858R/T790M) was generated by gene knockout, in which the EGFR targeting sgRNA was designed to specifically target WT EGFR but preserve the L858R/T790M copy. Followed by the gene knockout, the edited H1975 cells were seeded in 96 well plates at the concentration of 1 cell/well, cultured for about 2 weeks to allow single clones formation. The formed clones were screened by DNA sequencing for the desired edition. H1975-clone #36 was confirmed as a homozygous L858R/T790M EGFR clone.
BaF3 WT(wild type), BaF3-LTC(L858R/T790M/C797S) and BaF3-DTC(Del19/T790M/C797S) cells are treated with compounds diluted in 0.2% DMSO cell culture medium and incubate for 16h, 37° C., 5% CO2, H1975-#36, H1975-#28, H1975-#23 and HCC827 cells are treated with compounds diluted in 0.2% DMSO cell culture medium on day 2, incubate for 16h, 37° C., 5% CO2.the final concentriation of compounds in all assay is start with 10 uM, 5-fold dilution, total 8 doses were included.
After 16h treatment, add HTRF lysis buffer to each well; seal the plate and incubate 1 hour at room temperature on a plate shaker; Once the cells are lysed, 16 μL of cell lysate are transferred to a PE 384-well HTRF detection plate; 4 μL of pre-mixed HTRF antibodies are added to each well; Cover the plate with a plate sealer, spin 1000 rpm for 1 min, Incubate overnight at room temperature; Read on BMG PheraStar with HTRF protocol (337 nm-665 nm-620 nm).
The inhibition (degradation) percentage of the compound was calculated by the following equation: Inhibition percentage of Compound=100-100×(Signal-low control)/(High control-low control), wherein signal=each test compound group
High control=Cell group with added DMSO and without compound, indicating microplate readings without EGFR degradation;
Dmax is the maximum percentage of inhibition (degradation).
The IC50 (DC50) value of a compound can be obtained by fitting the following equation
Y=Bottom+(TOP−Bottom)/(1+((IC50/X)^hillslope))
Wherein, X and Y are known values, and IC50, Hillslope, Top and Bottom are the parameters obtained by fitting with software. Y is the inhibition percentage (calculated from the equation), X is the concentration of the compound; IC50 is the concentration of the compound when the 50% inhibition is reached. The smaller the IC50 value is, the stronger the inhibitory ability of the compound is. Vice versa, the higher the IC50 value is, the weaker the inhibitory ability of the compound is; Hillslope represents the slope of the fitted curve, generally around 1*; Bottom represents the minimum value of the curve obtained by data fitting, which is generally 0%±20%; Top represents the maximum value of the curve obtained by data fitting, which is generally 100%±20%. The experimental data were fitted by calculating and analyzing with Dotmatics data analysis software.

T2 sequence (P00533 25-1210 T790M/L858R): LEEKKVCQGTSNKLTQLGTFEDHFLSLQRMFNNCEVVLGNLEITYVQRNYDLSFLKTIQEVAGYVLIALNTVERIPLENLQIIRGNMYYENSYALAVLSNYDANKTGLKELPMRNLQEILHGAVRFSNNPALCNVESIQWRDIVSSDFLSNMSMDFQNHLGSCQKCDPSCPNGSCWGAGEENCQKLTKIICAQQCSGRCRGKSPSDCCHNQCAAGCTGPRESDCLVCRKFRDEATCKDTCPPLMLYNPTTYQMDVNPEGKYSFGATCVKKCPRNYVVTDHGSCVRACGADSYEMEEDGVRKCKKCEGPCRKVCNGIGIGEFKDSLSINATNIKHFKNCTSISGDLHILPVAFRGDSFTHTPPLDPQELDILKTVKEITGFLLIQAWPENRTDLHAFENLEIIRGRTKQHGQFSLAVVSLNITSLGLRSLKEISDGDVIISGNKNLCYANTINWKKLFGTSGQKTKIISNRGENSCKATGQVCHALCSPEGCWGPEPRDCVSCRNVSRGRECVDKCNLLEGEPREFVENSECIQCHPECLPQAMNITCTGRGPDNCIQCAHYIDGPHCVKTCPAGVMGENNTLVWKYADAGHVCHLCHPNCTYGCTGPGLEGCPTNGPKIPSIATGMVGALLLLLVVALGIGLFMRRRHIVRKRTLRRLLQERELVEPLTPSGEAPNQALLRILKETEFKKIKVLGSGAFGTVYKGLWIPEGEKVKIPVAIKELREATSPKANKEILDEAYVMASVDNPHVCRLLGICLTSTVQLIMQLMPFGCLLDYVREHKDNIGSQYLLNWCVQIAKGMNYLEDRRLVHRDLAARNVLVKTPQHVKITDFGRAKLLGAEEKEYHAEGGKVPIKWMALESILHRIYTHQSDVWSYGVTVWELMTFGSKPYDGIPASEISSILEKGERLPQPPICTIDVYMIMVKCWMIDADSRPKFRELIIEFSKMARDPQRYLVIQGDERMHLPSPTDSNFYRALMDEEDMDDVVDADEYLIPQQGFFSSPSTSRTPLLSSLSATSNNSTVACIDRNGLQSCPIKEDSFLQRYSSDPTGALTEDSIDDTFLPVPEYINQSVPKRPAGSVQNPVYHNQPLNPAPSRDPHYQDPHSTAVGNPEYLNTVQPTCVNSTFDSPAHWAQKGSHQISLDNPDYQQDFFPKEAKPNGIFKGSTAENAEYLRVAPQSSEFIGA
T1 sequence (P00533 with tags, fused parts or gaps DEL746-750): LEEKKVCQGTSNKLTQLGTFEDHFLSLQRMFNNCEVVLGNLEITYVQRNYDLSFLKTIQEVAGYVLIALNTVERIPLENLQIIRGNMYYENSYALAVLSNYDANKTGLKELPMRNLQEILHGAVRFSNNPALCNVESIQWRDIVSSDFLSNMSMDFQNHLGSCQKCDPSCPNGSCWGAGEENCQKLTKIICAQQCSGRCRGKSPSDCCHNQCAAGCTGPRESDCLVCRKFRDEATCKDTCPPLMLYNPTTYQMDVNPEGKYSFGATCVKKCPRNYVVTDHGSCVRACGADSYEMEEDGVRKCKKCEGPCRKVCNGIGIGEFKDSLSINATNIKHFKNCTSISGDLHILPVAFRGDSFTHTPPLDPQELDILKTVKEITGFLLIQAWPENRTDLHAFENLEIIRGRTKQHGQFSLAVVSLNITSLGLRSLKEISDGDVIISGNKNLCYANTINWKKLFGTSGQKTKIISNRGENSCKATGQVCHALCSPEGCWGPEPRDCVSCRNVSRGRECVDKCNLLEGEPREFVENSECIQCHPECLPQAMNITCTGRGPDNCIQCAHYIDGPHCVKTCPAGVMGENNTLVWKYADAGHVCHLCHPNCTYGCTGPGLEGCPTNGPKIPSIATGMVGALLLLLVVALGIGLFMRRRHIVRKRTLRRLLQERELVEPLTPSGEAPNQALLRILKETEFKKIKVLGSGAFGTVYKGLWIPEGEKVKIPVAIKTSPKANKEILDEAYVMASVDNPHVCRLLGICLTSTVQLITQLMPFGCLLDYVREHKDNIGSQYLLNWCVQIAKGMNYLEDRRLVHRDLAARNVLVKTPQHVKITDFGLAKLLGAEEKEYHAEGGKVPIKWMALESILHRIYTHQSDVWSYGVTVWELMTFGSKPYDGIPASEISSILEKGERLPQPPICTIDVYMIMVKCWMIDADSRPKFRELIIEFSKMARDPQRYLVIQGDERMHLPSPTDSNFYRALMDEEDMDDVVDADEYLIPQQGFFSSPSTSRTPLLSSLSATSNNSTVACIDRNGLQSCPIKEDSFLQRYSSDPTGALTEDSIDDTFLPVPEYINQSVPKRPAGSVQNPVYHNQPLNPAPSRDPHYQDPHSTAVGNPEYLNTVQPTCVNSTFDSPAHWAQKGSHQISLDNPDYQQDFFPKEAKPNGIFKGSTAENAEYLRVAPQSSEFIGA

Structure (SMILES) | DC50 (EGFR (HCC827 cells)) [nM] | Dmax (EGFR (HCC827 cells)) [%] | DC50 [1] [nM] | Dmax [1] [%]
CCc1cc(Nc2ncc(Br)c(Nc3ccc4nccnc4c3P(C)(C)=O)n2)c(OC)cc1N1CCC(N2CCN(CCOCCC(=O)N[C@H](C(=O)N3C[C@H](O)C[C@H]3C(=O)NCc3ccc(-c4scnc4C)cc3)C(C)(C)C)CC2)CC1 [Example 103, (2S,4R)-1-((S)-2-(3-(2-(4-(1-(4-((5-bromo-4-((5-(dimethylphosphoryl)quinoxalin-6-yl)amino)pyrimidin-2-yl)amino)-2-ethyl-5-methoxyphenyl)piperidin-4-yl)piperazin-1-yl)ethoxy)propanamido)-3,3-dimethylbutanoyl)-4-hydroxy-N-(4-(4-methylthiazol-5-yl)benzyl)pyrrolidine-2-carboxamide] | 28.8 | 84.2 | 43.1 | 79.6
COc1cc(N2CCN(CC3CCN(c4ccc(N5CCC(=O)NC5=O)c(F)c4)CC3)CC2)c(C)cc1Nc1ncc(Br)c(Nc2ccc3nccnc3c2P(C)(C)=O)n1 [Example 96, 1-(4-(4-((4-(4-((5-bromo-4-((5-(dimethylphosphoryl)quinoxalin-6-yl)amino)pyrimidin-2-yl)amino)-5-methoxy-2-methylphenyl)piperazin-1-yl)methyl)piperidin-1-yl)-2-fluorophenyl)dihydropyrimidine-2,4(1H,3H)-dione] | 151 | 67 | > 10000 | 7.3
COc1cc(N2CCC(N3CCN(CCC4CCN(c5ccc(N6CCC(=O)NC6=O)c(F)c5)CC4)CC3)CC2)ccc1Nc1ncc(Cl)c(Nc2ccccc2N(C)S(C)(=O)=O)n1 [Example 125, N-(2-((5-chloro-2-((4-(4-(4-(2-(1-(4-(2,4-dioxotetrahydropyrimidin-1(2H)-yl)-3-fluorophenyl)piperidin-4-yl)ethyl)piperazin-1-yl)piperidin-1-yl)-2-methoxyphenyl)amino)pyrimidin-4-yl)amino)phenyl)-N-methylmethanesulfonamide] | 103 | 73.5 | > 10000 | 27.2
COc1cc(N2CCN(CC3CCN(c4ccc(N5CCC(=O)NC5=O)cc4C)CC3)CC2)c(C)cc1Nc1ncc(Br)c(Nc2ccc3nccnc3c2P(C)(C)=O)n1 [Example 98, 1-(4-(4-((4-(4-((5-bromo-4-((5-(dimethylphosphoryl)quinoxalin-6-yl)amino)pyrimidin-2-yl)amino)-5-methoxy-2-methylphenyl)piperazin-1-yl)methyl)piperidin-1-yl)-3-methylphenyl)dihydropyrimidine-2,4(1H,3H)-dione] | 166 | 62.3 | > 10000 | 8.3
COc1cc(N2CCC(N3CCN(CCc4ccc(C5CCC(=O)NC5=O)cc4)CC3)CC2)ccc1Nc1ncc(Cl)c(Nc2ccccc2P(C)(C)=O)n1 (stereo not drawn) [Example 104, 3-(4-(2-(4-(1-(4-((5-chloro-4-((2-(dimethylphosphoryl)phenyl)amino)pyrimidin-2-yl)amino)-3-methoxyphenyl)piperidin-4-yl)piperazin-1-yl)ethyl)phenyl)piperidine-2,6-dione] | 17.7 | 83.4 | 5.89 | 74.7
COc1cc(N2CCC(N(C)CC3CCN(c4ccc(N5CCC(=O)NC5=O)c(F)c4)CC3)CC2)c(C)cc1Nc1ncc(Br)c(Nc2ccc3nccnc3c2P(C)(C)=O)n1 [Example 81, 1-(4-(4-(((1-(4-((5-bromo-4-((5-(dimethylphosphoryl)quinoxalin-6-yl)amino)pyrimidin-2-yl)amino)-5-methoxy-2-methylphenyl)piperidin-4-yl)(methyl)amino)methyl)piperidin-1-yl)-2-fluorophenyl)dihydropyrimidine-2,4(1H,3H)-dione] | 25.8 | 68.8 | > 10000 | 5.13

The next compounds have a lower DC50 (EGFR (HCC827 cells)) than those just listed; values first:

DC50 (EGFR (HCC827 cells)) [nM] | Dmax (EGFR (HCC827 cells)) [%] | DC50 [1] [nM] | Dmax [1] [%] | Structure (SMILES)
16 | 67.2 | 12.2 | 83.7 | COc1cc(N2CCN(CC3CCN(c4ccc(C5CCC(=O)NC5=O)cc4)CC3)CC2)ccc1Nc1ncc(Cl)c(Nc2ccccc2P(C)(C)=O)n1 (stereo not drawn) [Example 105, 3-(4-(4-((4-(4-((5-chloro-4-((2-(dimethylphosphoryl)phenyl)amino)pyrimidin-2-yl)amino)-3-methoxyphenyl)piperazin-1-yl)methyl)piperidin-1-yl)phenyl)piperidine-2,6-dione]
12.8 | 81.4 | 6.53 | 77.5 | COc1cc(N2CCN(CCC3CCN(c4ccc(C5CCC(=O)NC5=O)cc4)CC3)CC2)c(C)cc1Nc1ncc(Br)c(Nc2ccc3nccnc3c2P(C)(C)=O)n1 (stereo not drawn) [Example 90, 3-(4-(4-(2-(4-(4-((5-bromo-4-((5-(dimethylphosphoryl)quinoxalin-6-yl)amino)pyrimidin-2-yl)amino)-5-methoxy-2-methylphenyl)piperazin-1-yl)ethyl)piperidin-1-yl)phenyl)piperidine-2,6-dione]
11.1 | 83.6 | 7.44 | 75.4 | CCc1cc(Nc2ncc(Br)c(Nc3ccc4nccnc4c3P(C)(C)=O)n2)c(OC)cc1N1CCC(N2CCN(CCc3ccc(C4CCC(=O)NC4=O)c(Cl)c3)CC2)CC1 (stereo not drawn) [Example 4, 3-(4-(2-(4-(1-(4-((5-bromo-4-((5-(dimethylphosphoryl)quinoxalin-6-yl)amino)pyrimidin-2-yl)amino)-2-ethyl-5-methoxyphenyl)piperidin-4-yl)piperazin-1-yl)ethyl)-2-chlorophenyl)piperidine-2,6-dione]
9.48 | 78.9 | > 10000 | 42.8 | CCc1cc(Nc2ncc(Br)c(Nc3ccc4nccnc4c3P(C)(C)=O)n2)c(OC)cc1N1CCC(N2CCN(CCc3ccc(C4CCC(=O)NC4=O)cn3)CC2)CC1 (stereo not drawn) [Example 13, 3-(6-(2-(4-(1-(4-((5-bromo-4-((5-(dimethylphosphoryl)quinoxalin-6-yl)amino)pyrimidin-2-yl)amino)-2-ethyl-5-methoxyphenyl)piperidin-4-yl)piperazin-1-yl)ethyl)pyridin-3-yl)piperidine-2,6-dione]
17 | 76.2 | 67.4 | 86.7 | COc1cc(N2CCC(N3CCN(C(=O)C[C@H](NC(=O)[C@@H]4C[C@@H](O)CN4C(=O)[C@@H](c4cc(C)no4)C(C)C)c4ccc(-c5scnc5C)cc4)CC3)CC2)ccc1Nc1ncc(Cl)c(Nc2ccccc2P(C)(C)=O)n1 [Example 117, (2S,4R)—N—((S)-3-(4-(1-(4-((5-chloro-4-((2-(dimethylphosphoryl)phenyl)amino)pyrimidin-2-yl)amino)-3-methoxyphenyl)piperidin-4-yl)piperazin-1-yl)-1-(4-(4-methylthiazol-5-yl)phenyl)-3-oxopropyl)-4-hydroxy-1-((R)-3-methyl-2-(3-methylisoxazol-5-yl)butanoyl)pyrrolidine-2-carboxamide]
12.8 | 85.3 | 9.02 | 83.9 | COc1cc(N2CCC(N3CCN(CCc4ccc(C5CCC(=O)NC5=O)cc4)CC3)CC2)ccc1Nc1ncc(Cl)c(Nc2ccccc2N(C)S(C)(=O)=O)n1 (stereo not drawn) [Example 119, N-(2-((5-chloro-2-((4-(4-(4-(4-(2,6-dioxopiperidin-3-yl)phenethyl)piperazin-1-yl)piperidin-1-yl)-2-methoxyphenyl)amino)pyrimidin-4-yl)amino)phenyl)-N-methylmethane sulfonamide]
